US8357678B2, “Chair ruthenium complexes and their use as anticancer agents” (Guangdong Pharmaceutical University, priority 2007, dated 2013)

Columns and labels:
Experiment in all cases: MTT assay, inhibitory activity against growth of cancer cells
Format in all cases: cell-based
[1] = system: Human lung adenocarcinoma epithelial cell line A-549; conditions: Dosage 5 μg/ml, 72 h incubation
Method: (§1) The inhibitory activity of these chair ruthenium(II) complexes have been evaluated by MTT assay by using 5-fluorouracil (5-Fu) as positive control. Human hepatocarcinoma cell line Bel-7402, human intestinal adenocarcinoma cell line HCT-8 and Human lung adenocarcinoma epithelial cell line A-549 were supplied by the Institute of Materia Medica, Chinese Academy of Medical Sciences & Peking Union Medical College. The determination of the cytotoxicity (dark toxicity) of the compound was carried out in parallel with the phototoxicity determination following the same procedure, with the exclusion of the irradiation.
(§2) General method: Cells were diluted to 5000/ml by PRMI1640 minimal essential medium with 10% fetal calf serum (FCS), plated at 100 μl cells per well in a 96-well Corning microtiter plate, and incubated at 37° C. with 5% CO2 for 24 h. After cell was covered a single layer, drugs (10 μl) was added, and PRMI1640 minimal essential medium was supplied to make the total volume to 200 μl. After incubated for another 72 h at 37° C., 5% CO2, the medium was removed and freshly prepared MTT dissolved in DMSO (200 μl) was added, and the OD value was recorded on ELISA Reader at 544 nm. The inhibitory activity of ruthenium complexes was calculated according to equation: Inhibitory activity(%)=([…])/(ODcontrol−ODblank)×100%.

[2] = system: human intestinal adenocarcinoma cell line HCT-8; conditions: 72 h incubation
Method: as §1, §2

[3] = system: human hepatocarcinoma cell line Bel-7402; conditions: 72 h incubation
Method: as §1, §2

With `F[P-](F)(F)(F)(F)F.F[P-](F)(F)(F)(F)F.c1cc[n+]2c(c1)-c1cccc[n+]1[Ru-4]213([n+]2ccccc2-c2cccc[n+]21)[n+]1ccccc1-c1[nH]c2cc4ccccc4cc2[n+]13` [Λ-4, Λ-[Ru(bpy)2(PYNI)](PF6)2] the “Inhibitory activity (%) A-549” value [1] was −2.3%, the “Inhibitory activity (%) HCT-8” value ([2]; Dosage 5 μg/ml) was 3.6% and the “Inhibitory activity (%) HCT-8” value ([2]; Dosage 50 μg/ml) was 21.4%. The “Inhibitory activity (%) BEL-7402” value ([3]; Dosage 5 μg/ml) was 4.4% and the “Inhibitory activity (%) BEL-7402” value ([3]; Dosage 50 μg/ml) was 22.6%.
In the case of `F[P-](F)(F)(F)(F)F.F[P-](F)(F)(F)(F)F.c1cc[n+]2c(c1)-c1cccc[n+]1[Ru-4]213([n+]2ccccc2-c2cccc[n+]21)[n+]1ccccc1-c1[nH]c2cc4ccccc4cc2[n+]13` [Δ-4, Δ-[Ru(bpy)2(PYNI)](PF6)2], the “Inhibitory activity (%) A-549” value [1] was −8.2%, the “Inhibitory activity (%) HCT-8” value ([2]; Dosage 5 μg/ml) was 1.8% and the “Inhibitory activity (%) HCT-8” value ([2]; Dosage 50 μg/ml) was 38.6%. For the same compound, the “Inhibitory activity (%) BEL-7402” value ([3]; Dosage 5 μg/ml) was 2.8% and the “Inhibitory activity (%) BEL-7402” value ([3]; Dosage 50 μg/ml) was 36.0%.
For `FC(F)(F)c1ccccc1-c1nc2c3ccc[n+]4c3c3c(ccc[n+]3[Ru-4]435([n+]4ccccc4-c4cccc[n+]43)[n+]3ccccc3-c3cccc[n+]35)c2[nH]1.F[P-](F)(F)(F)(F)F.F[P-](F)(F)(F)(F)F` [Λ-1, Λ-[Ru(bpy)2(tFPIP)](PF6)2], the “Inhibitory activity (%) A-549” value [1] was 56.4%, the “Inhibitory activity (%) HCT-8” value ([2]; Dosage 5 μg/ml) was 83.0% and the “Inhibitory activity (%) HCT-8” value ([2]; Dosage 50 μg/ml) was 88.9%. The “Inhibitory activity (%) BEL-7402” value ([3]; Dosage 5 μg/ml) was 85.2% and the “Inhibitory activity (%) BEL-7402” value ([3]; Dosage 50 μg/ml) was 88.8%.
For Λ-[Ru(bpy)2(IPBP)](PF6)2 [Λ-2], the “Inhibitory activity (%) A-549” value [1] was −0.52%, the “Inhibitory activity (%) HCT-8” value ([2]; Dosage 5 μg/ml) was 2.23% and the “Inhibitory activity (%) HCT-8” value ([2]; Dosage 50 μg/ml) was 53.7%. For the same compound, the “Inhibitory activity (%) BEL-7402” value ([3]; Dosage 5 μg/ml) was 0.19% and the “Inhibitory activity (%) BEL-7402” value ([3]; Dosage 50 μg/ml) was 64.9%.
With `FC(F)(F)c1ccccc1-c1nc2c3ccc[n+]4c3c3c(ccc[n+]3[Ru-4]435([n+]4ccccc4-c4cccc[n+]43)[n+]3ccccc3-c3cccc[n+]35)c2[nH]1.F[P-](F)(F)(F)(F)F.F[P-](F)(F)(F)(F)F` [Δ-1, Δ-[Ru(bpy)2(tFPIP)](PF6)2] the “Inhibitory activity (%) A-549” value [1] was 62.0%, the “Inhibitory activity (%) HCT-8” value ([2]; Dosage 5 μg/ml) was 81.6% and the “Inhibitory activity (%) HCT-8” value ([2]; Dosage 50 μg/ml) was 86.2%. For the same compound, the “Inhibitory activity (%) BEL-7402” value ([3]; Dosage 5 μg/ml) was 85.0% and the “Inhibitory activity (%) BEL-7402” value ([3]; Dosage 50 μg/ml) was 88.3%.
For `F[P-](F)(F)(F)(F)F.F[P-](F)(F)(F)(F)F.c1cc[n+]2c(c1)-c1cccc[n+]1[Ru-4]213([n+]2ccccc2-c2cccc[n+]21)[n+]1cccc2c4nc(-c5ccc6c(c5)OCCO6)[nH]c4c4ccc[n+]3c4c21` [Λ-3, Λ-[Ru(bpy)2(IPBH)](PF6)2], the “Inhibitory activity (%) A-549” value [1] was −0.92%, the “Inhibitory activity (%) HCT-8” value ([2]; Dosage 5 μg/ml) was 2.1% and the “Inhibitory activity (%) HCT-8” value ([2]; Dosage 50 μg/ml) was 39.1%. For the same compound, the “Inhibitory activity (%) BEL-7402” value ([3]; Dosage 5 μg/ml) was 3.0% and the “Inhibitory activity (%) BEL-7402” value ([3]; Dosage 50 μg/ml) was 44.3%.
Δ-[Ru(bpy)2(IPBP)](PF6)2 [Δ-2] was tested, and the “Inhibitory activity (%) A-549” value [1] was 18.5%, the “Inhibitory activity (%) HCT-8” value ([2]; Dosage 5 μg/ml) was 13.1% and the “Inhibitory activity (%) HCT-8” value ([2]; Dosage 50 μg/ml) was 83.4%. For the same compound, the “Inhibitory activity (%) BEL-7402” value ([3]; Dosage 5 μg/ml) was 9.6% and the “Inhibitory activity (%) BEL-7402” value ([3]; Dosage 50 μg/ml) was 86.8%.
